Measured values from patent publication US20190359653A1, “SELECTIVE PEPTIDE INHIBITORS OF FRIZZLED” (Genentech, Inc., priority 2016, published 2019).
Read-outs that look alike come from different tables or passages of the source.

Experiments:
Herceptin = test: spot phage ELISA against Herceptin (off-target); assay type: binding; details: for SIGNAL: NOISE RATIO HERCEPTIN: spot phage ELISA signal against Herceptin over ELISA signal against BSA, Tables 3 and 4; for HERCEPTIN S/W: signal minus noise (BSA); for HERCEPTIN S/W / HERCEPTIN S/N: Table 5; for HERCEPTIN S/N: signal to noise ratio
Experimental: (§1) Phage pools of linear peptide libraries (Stanger, K. et al. Allosteric peptides bind a caspase zymogen and mediate caspase tetramerization. Nat Chem Biol 8, 655-660 (2012)) were cycled through rounds of binding selections with hFZD7 CRD-Fc following standard protocols (Tonikian et al. (2007) Nat Protoc 2, 1368-1386). Herceptin (10 μM) was included in sorting solution to block potential Fc binders during all rounds of sorting. After four rounds of binding selection, individual phage clones were analyzed in a high-throughput spot phage ELISA using plate-immobilized FZD7 CRD-Fc as target or off-target for specificity test (hFZD8 CRD-Fc and Herceptin). To measure off-target affinity, duplicate phage particle were assayed against BSA to measure non-specific binding. Clones with a phage-binding signal >0.5 and signal-to-noise ratio >10 were considered to be positive clones and were subjected to DNA sequence analysis. General data handling was done using Microsoft Excel 2010 unless otherwise noted.
(§2) In order to investigate the role of FZD7 in intestinal stem cell function, experiments were performed to identify ligands that selectively bind FZD7 CRD. A naïve linear peptide library (4-16 amino acids in length) and a cyclic peptide library were screened via phage display against FZD7 CRD-Fc. Peptides found to bind FZD7 CRD-Fc were then screened via spot phage ELISA against FZD7 CRD-Fc, FZD8 CRD-Fc, and Herceptin to identify candidates that bind FZD7 CRD but not FZD8 CRD or herceptin. The amino acid sequences of candidate FZD7 CRD-binding linear peptides are shown in Table 3 below, and the amino acid sequences of candidate FZD7 CRD-binding cyclic peptides are shown in Table 4.
(§3) Briefly, sixty Fz7-21-derived peptides (see Table 5), each containing at least one random alanine and/or valine/and/or aspartic acid and/or serine substitution, were generated and screened via spot phage ELISA (i.e., as described above) against FZD7 CRD-Fc and Herceptin.

[1] = tested on: Wnt3a-mediated stabilization of β-catenin in mouse L cells; test: in-cell western of β-catenin protein in L cells treated with Wnt3a; assay type: cell-based
Experimental: DMSO controls were performed in parallel. Following treatment, the L-cells were fixed, permeabilized, probed with fluorescently labeled anti-β-catenin antibodies, and observed via in-cell western assay (i.e., as described in Hannoush, R. N. (2008) PLoS One 3, e3498) to assess β-catenin protein levels. The values in Table 7 are averages of at least 3 independent replicates, ±standard deviation.

[2] = tested on: Wnt3a-mediated β-catenin signaling in HEK293-TB cells; assay type: cell-based; details: for HEK293S-TB % Remaining Activity: measured at 100 μM peptide; for IC50 compared with dFz7-21: text to Table 17
FZD8 CRD-Fc = target: T1, FZD8 CRD-Fc (Homo sapiens, UniProt Q9H461); test: spot phage ELISA against FZD8 CRD-Fc (off-target); assay type: binding; details: spot phage ELISA signal against FZD 8 CRD over ELISA signal against BSA; Tables 3 and 4
T1 construct: hFZD8 CRD-Fc (cat no. 6129-FZ); purchased R&D systems 6129-FZ
T1 sequence (Q9H461 30-151 limits assumed): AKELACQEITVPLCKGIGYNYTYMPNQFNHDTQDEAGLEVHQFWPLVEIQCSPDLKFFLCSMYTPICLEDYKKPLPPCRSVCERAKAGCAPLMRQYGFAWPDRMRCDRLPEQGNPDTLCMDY
Experimental: as §1, §2

FZD7 CRD-Fc = target: T2, FZD7 CRD-Fc (Homo sapiens, UniProt O75084); test: spot phage ELISA against FZD7 CRD-Fc; assay type: binding; details: for SIGNAL: NOISE RATIO FZD7 CRD: spot phage ELISA signal against FZD7 CRD over ELISA signal against BSA, Tables 3 and 4; for FZD7 CRD-Fc phage-binding signal: signal minus noise (BSA); for FZD7 CRD-Fc phage-binding signal / FZD7 CRD-Fc S/N: shotgun scanning variants of Fz7-21, Table 5; for FZD7 CRD-Fc S/N: signal to noise ratio
T2 construct: hFZD7 CRD-Fc (cat no. 6178-FZ); purchased R&D systems 6178-FZ
Experimental: as §1, §2, §3

[3] = tested on: Rnf43^−/− and Znf3^−/− intestinal neoplasia in mice; details: Koo et al. (2015); cited from earlier work
[4] = β-catenin by immunofluorescence, Wnt3a 2.5 nM, 5 hours, mean ± standard deviation
[5] = […], mWnt3a 50 ng/mL, 6 hours, mean ± standard deviation, read-out: HEK293S-TB IC50

IWFKGRFVEFSSLV [Fz7-17]
SIGNAL: NOISE RATIO HERCEPTIN (Herceptin): 1.1
L CELLS % Remaining Activity ([1]; measured at 100 μM peptide): 38.20 ± 0.06%
IC50 [1, 4]: ~35 µM
IC50 [2, 5]: 34.77 ± 0.34 µM
HEK293S-TB % Remaining Activity ([2]; mean ± standard deviation): 4.59 ± 1.30%

16 (PCSVICLPDWSSLLFI) [compound 16]
SIGNAL: NOISE RATIO HERCEPTIN (Herceptin): 1.1
SIGNAL: NOISE RATIO FZD8 CRD (FZD8 CRD-Fc): 1.1
SIGNAL: NOISE RATIO FZD7 CRD (FZD7 CRD-Fc): 5.0

Cc1cc(-c2ccc(CC(=O)Nc3ccc(-c4cccnc4)cc3)cc2)ccn1 [C59]
adverse effects on adjacent intestinal crypts [3]: no significant adverse effects
growth of intestinal neoplasia [3]: prevents the growth

SDDLEFWCHVMY [dFz7-21-Δ2]
effect of N-terminal truncation on dFz7-21 activity ([2]; lacking the 2 N-terminal residues): did not interfere
IC50 compared with dFz7-21 [2]: comparable to that of dFz7-21

ISLIEAMIALDRVF [Fz7-06]
SIGNAL: NOISE RATIO HERCEPTIN (Herceptin): 1.1
L CELLS % Remaining Activity ([1]; measured at 100 μM peptide): 174.95%
L CELLS IC50 (μM) [1, 4]: n. i.
IC50 [2, 5]: 10.5 ± 0.56 µM
HEK293S-TB % Remaining Activity ([2]; mean ± standard deviation): 4.70 ± 2.07%

SDDXEFWCHVMY [dFz7-21Δ2.L6Hof]
IC50 compared with dFz7-21 [2]: comparable to that of dFz7-21

40 (AASDDLEFWCHVMY) [compound 40]
HERCEPTIN S/W (Herceptin): 0.0
HERCEPTIN S/N (Herceptin): 1.4
FZD7 CRD-Fc phage-binding signal (FZD7 CRD-Fc): 3.2
FZD7 CRD-Fc S/N (FZD7 CRD-Fc): 60.5

LPSDNLEFWCHVMY [Fz7-21N]
L CELLS % Remaining Activity ([1]; measured at 11.11 μM of peptide): 59.77^G ± 6.12%
Wnt3a-mediated stabilization of β-catenin ([1]; mouse L cells): blocked
IC50 [1, 4]: 0.18 ± 0.12 µM
HEK293S-TB % Remaining Activity ([2]; mean ± standard deviation): 5.51 ± 0.13%
IC50 ([2]; read-out: IC50, Wnt3a-stimulated β-catenin signaling): 0.1 µM

5 (PCSVICLPDWSSLLFI) [compound 5]
SIGNAL: NOISE RATIO HERCEPTIN (Herceptin): 1.0
SIGNAL: NOISE RATIO FZD8 CRD (FZD8 CRD-Fc): 1.5
SIGNAL: NOISE RATIO FZD7 CRD (FZD7 CRD-Fc): 22.7

41 (AASDDLEFWCHVMY) [compound 41]
HERCEPTIN S/W (Herceptin): 0.0
HERCEPTIN S/N (Herceptin): 1.3
FZD7 CRD-Fc phage-binding signal (FZD7 CRD-Fc): 3.0
FZD7 CRD-Fc S/N (FZD7 CRD-Fc): 59.6

94 (LPADDLEFWCHVMY) [compound 94]
HERCEPTIN S/W (Herceptin): 0.0
HERCEPTIN S/N (Herceptin): 1.2
FZD7 CRD-Fc phage-binding signal (FZD7 CRD-Fc): 0.1
FZD7 CRD-Fc S/N (FZD7 CRD-Fc): 2.8

FDFCSVMPQFIYCPGD [Fz7-20]
SIGNAL: NOISE RATIO HERCEPTIN (Herceptin): 1.14
L CELLS % Remaining Activity ([1]; measured at 100 μM peptide): 23.68 ± 4.40%
IC50 [1, 4]: 15.2 ± 10.8 µM
IC50 [2, 5]: 20.8 ± 1.61 µM
HEK293S-TB % Remaining Activity ([2]; mean ± standard deviation): 9.78 ± 0.53%

15 (FWMQLQDGFAIWFP) [compound 15]
SIGNAL: NOISE RATIO HERCEPTIN (Herceptin): 1.7
SIGNAL: NOISE RATIO FZD8 CRD (FZD8 CRD-Fc): 2.9

54 (AAADDLEVWCHVMY) [compound 54]
HERCEPTIN S/W (Herceptin): 0.0
HERCEPTIN S/N (Herceptin): 1.4

32 (SSDFSGCLSWCDLIFG) [compound 32]
SIGNAL: NOISE RATIO HERCEPTIN (Herceptin): 1.22

70 (AASDDLEAWCHVMY) [compound 70]
HERCEPTIN S/W (Herceptin): 0.0
HERCEPTIN S/N (Herceptin): 1.4

52 (LPADDLAVWCDVMY) [compound 52]
HERCEPTIN S/W (Herceptin): 0.0
HERCEPTIN S/N (Herceptin): 1.5

96 (APADDLESWCHVMY) [compound 96]
HERCEPTIN S/W (Herceptin): 0.1
HERCEPTIN S/N (Herceptin): 2.1

27 (NPPPECFLSK) [compound 27]
SIGNAL: NOISE RATIO HERCEPTIN (Herceptin): 1.2

92 (LPADDLAFWCDVMY) [compound 92]
HERCEPTIN S/W (Herceptin): 0.0
HERCEPTIN S/N (Herceptin): 0.7

43 (APADDVEFWCHVMY) [compound 43]
HERCEPTIN S/W (Herceptin): 0.0
HERCEPTIN S/N (Herceptin): 1.8

30 (LSSGKKVSSYWFNFWF) [compound 30]
SIGNAL: NOISE RATIO HERCEPTIN (Herceptin): 3.8

82 (LPAADLAAWCHVMY) [compound 82]
HERCEPTIN S/W (Herceptin): 0.0
HERCEPTIN S/N (Herceptin): 1.2

YEHLHDLMDLIRPW [Fz7-07]
SIGNAL: NOISE RATIO HERCEPTIN (Herceptin): 1.2
L CELLS % Remaining Activity ([1]; measured at 100 μM peptide): 67.20 ± 10.22%
IC50 [1, 4]: > 100 µM
IC50 [2, 5]: > 100 µM
HEK293S-TB % Remaining Activity ([2]; mean ± standard deviation): 46.04 ± 6.94%

61 (APADDLASWCHVMY) [compound 61]
HERCEPTIN S/W (Herceptin): 0.0
HERCEPTIN S/N (Herceptin): 1.3

79 (LPSADLESWCHVMY) [compound 79]
HERCEPTIN S/W (Herceptin): 0.0
HERCEPTIN S/N (Herceptin): 1.4
